From ChEMBL document CHEMBL2390930, “Design, synthesis and evaluation of 1,2-benzisothiazol-3-one derivatives as potent caspase-3 inhibitors” (Bioorg Med Chem, 2013)
pIC50: −log10 of the molar value.

Target: T1, Caspase-3 (Homo sapiens, UniProt P42574)
T1 sequence (P42574 whole entry): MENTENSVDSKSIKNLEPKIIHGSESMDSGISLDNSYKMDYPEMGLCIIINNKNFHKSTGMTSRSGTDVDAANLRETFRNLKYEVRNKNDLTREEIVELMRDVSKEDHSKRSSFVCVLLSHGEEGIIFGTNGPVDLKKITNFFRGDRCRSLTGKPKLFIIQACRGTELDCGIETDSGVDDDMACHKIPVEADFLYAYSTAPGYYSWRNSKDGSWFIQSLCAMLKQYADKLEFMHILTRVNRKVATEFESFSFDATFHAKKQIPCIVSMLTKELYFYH
Assay: Inhibition of recombinant human caspase-3 using Ac-LDEVD-AMC as substrate assessed as accumulation of 7-AMC incubated for 10 mins followed by substrate addition measured for 10 mins by fluorimetric analysis

| Structure (SMILES) | pIC50 |
| --- | --- |
| O=C(NCc1ccccc1)n1sc2ccccc2c1=O | 7.07 |
| Cn1sc2ccccc2c1=O | 4.37 |
| O=C(Nc1ccc(I)cc1)n1sc2ccccc2c1=O | < 4.00 |
| Cc1ccc(-n2sc3ccccc3c2=O)cc1 | 6.33 |
| O=c1c2ccccc2sn1-c1ccccc1 | 6.27 |
